Measured values from ChEMBL document CHEMBL5291721, “A preclinical secondary pharmacology resource illuminates target-adverse drug reaction associations of marketed drugs” (Nat Commun, 2023).

How the values were obtained:
Bile salt export pump = Bile salt export pump (Homo sapiens, UniProt O95342); type: functional
[1] = molecular target: Voltage-gated inwardly rectifying potassium channel KCNH2 (Homo sapiens, UniProt Q12809); type: functional; details: read-out: AC50
[2] = molecular target: Gamma-aminobutyric acid receptor subunit alpha-1 (Rattus norvegicus, UniProt P62813); type: functional
Sequence of Gamma-aminobutyric acid receptor subunit alpha-1 (P62813 whole entry): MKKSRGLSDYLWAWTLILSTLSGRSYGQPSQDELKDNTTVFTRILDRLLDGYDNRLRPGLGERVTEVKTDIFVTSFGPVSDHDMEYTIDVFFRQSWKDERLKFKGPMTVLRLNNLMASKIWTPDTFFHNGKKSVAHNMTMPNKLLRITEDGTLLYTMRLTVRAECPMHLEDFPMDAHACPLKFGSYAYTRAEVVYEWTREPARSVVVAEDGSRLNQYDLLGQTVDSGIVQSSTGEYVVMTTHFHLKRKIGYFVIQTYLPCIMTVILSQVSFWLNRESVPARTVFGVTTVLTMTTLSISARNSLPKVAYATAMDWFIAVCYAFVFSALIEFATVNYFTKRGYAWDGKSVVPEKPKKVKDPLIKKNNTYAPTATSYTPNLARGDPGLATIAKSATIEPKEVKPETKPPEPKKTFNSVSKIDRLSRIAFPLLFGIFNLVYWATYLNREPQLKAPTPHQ

Adenosine receptor A2a = Adenosine receptor A2a (Homo sapiens, UniProt P29274)
[3] = molecular target: T1, Equilibrative nucleoside transporter 1 (Homo sapiens, UniProt Q99808)
T1 sequence (Q99808 whole entry): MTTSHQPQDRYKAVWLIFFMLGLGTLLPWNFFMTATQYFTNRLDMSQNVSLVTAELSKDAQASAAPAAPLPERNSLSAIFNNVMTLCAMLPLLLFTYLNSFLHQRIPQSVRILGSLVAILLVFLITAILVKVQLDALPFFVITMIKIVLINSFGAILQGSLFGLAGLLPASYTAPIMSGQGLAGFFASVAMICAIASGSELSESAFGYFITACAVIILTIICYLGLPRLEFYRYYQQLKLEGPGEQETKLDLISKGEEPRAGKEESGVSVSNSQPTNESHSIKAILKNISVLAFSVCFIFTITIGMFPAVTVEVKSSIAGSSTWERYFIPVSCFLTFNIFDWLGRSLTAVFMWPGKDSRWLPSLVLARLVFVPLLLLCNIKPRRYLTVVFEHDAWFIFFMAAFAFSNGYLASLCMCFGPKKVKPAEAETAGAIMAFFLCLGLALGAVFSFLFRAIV

[4] = molecular target: Neuronal acetylcholine receptor subunit alpha-4 (Homo sapiens, UniProt P43681)
[5] = molecular target: Growth hormone secretagogue receptor type 1 (Homo sapiens, UniProt Q92847)
Sequence of Growth hormone secretagogue receptor type 1 (Q92847 whole entry): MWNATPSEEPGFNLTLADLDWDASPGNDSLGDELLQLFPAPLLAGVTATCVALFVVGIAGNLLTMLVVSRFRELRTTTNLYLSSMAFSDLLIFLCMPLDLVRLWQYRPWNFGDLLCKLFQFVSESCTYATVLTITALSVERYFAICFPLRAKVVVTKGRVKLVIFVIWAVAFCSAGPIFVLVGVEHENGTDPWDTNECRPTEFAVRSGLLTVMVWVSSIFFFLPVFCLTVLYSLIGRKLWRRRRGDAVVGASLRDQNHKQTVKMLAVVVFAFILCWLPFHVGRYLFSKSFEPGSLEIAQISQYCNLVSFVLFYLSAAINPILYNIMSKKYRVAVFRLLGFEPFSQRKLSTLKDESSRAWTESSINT

[6] = molecular target: Delta-type opioid receptor (Homo sapiens, UniProt P41143)
Melanocortin receptor 3 = Melanocortin receptor 3 (Homo sapiens, UniProt P41968)
Sequence of Melanocortin receptor 3 (P41968 whole entry): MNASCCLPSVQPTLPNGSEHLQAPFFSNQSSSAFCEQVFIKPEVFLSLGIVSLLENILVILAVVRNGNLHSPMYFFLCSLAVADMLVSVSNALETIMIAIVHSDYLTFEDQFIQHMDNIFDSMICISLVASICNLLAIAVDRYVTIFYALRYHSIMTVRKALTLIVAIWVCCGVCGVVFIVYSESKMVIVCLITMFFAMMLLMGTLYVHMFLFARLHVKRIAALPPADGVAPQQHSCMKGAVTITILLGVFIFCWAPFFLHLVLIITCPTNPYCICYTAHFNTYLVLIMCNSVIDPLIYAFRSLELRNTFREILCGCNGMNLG

[7] = molecular target: T2, Prostaglandin G/H synthase 1 (Rattus norvegicus, UniProt Q63921); type: functional
T2 sequence (Q63921 whole entry): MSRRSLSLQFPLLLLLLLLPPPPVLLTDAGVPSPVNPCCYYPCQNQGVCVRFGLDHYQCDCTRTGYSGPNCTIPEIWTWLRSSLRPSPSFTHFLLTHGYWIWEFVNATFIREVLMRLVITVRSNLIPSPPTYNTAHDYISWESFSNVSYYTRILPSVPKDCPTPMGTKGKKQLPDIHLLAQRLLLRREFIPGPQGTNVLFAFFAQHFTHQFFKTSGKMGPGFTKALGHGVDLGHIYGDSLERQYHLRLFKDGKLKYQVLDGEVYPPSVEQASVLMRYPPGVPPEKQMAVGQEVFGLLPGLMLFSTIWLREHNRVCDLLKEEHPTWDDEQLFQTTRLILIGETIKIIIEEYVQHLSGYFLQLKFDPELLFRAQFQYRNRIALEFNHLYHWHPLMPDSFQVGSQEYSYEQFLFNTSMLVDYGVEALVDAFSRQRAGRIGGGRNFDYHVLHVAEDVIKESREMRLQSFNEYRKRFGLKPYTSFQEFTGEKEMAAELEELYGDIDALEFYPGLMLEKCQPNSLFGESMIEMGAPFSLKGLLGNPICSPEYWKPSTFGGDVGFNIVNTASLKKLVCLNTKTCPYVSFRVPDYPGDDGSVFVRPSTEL

[8] = molecular target: Sodium-dependent noradrenaline transporter (Homo sapiens, UniProt P23975)
Sequence of Sodium-dependent noradrenaline transporter (P23975 whole entry): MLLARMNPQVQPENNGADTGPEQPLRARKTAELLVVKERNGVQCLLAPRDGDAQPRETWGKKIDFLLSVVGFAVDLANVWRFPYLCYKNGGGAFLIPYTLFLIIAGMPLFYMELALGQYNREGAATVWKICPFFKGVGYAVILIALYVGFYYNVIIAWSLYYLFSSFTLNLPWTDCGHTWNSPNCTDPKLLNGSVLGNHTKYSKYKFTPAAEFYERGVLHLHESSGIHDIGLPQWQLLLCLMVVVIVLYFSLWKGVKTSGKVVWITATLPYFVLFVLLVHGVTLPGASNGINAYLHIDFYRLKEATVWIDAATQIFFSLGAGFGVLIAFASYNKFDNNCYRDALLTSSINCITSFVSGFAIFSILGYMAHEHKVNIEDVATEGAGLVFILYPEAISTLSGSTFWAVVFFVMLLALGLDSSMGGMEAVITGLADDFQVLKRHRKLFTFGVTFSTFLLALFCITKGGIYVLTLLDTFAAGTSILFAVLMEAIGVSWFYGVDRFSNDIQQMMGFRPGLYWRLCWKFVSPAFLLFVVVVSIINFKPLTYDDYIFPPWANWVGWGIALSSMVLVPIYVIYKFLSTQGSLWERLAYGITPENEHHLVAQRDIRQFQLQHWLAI

[9] = molecular target: 3',5'-cyclic-AMP phosphodiesterase 4D (Homo sapiens, UniProt Q08499); type: functional
Sequence of 3',5'-cyclic-AMP phosphodiesterase 4D (Q08499 whole entry): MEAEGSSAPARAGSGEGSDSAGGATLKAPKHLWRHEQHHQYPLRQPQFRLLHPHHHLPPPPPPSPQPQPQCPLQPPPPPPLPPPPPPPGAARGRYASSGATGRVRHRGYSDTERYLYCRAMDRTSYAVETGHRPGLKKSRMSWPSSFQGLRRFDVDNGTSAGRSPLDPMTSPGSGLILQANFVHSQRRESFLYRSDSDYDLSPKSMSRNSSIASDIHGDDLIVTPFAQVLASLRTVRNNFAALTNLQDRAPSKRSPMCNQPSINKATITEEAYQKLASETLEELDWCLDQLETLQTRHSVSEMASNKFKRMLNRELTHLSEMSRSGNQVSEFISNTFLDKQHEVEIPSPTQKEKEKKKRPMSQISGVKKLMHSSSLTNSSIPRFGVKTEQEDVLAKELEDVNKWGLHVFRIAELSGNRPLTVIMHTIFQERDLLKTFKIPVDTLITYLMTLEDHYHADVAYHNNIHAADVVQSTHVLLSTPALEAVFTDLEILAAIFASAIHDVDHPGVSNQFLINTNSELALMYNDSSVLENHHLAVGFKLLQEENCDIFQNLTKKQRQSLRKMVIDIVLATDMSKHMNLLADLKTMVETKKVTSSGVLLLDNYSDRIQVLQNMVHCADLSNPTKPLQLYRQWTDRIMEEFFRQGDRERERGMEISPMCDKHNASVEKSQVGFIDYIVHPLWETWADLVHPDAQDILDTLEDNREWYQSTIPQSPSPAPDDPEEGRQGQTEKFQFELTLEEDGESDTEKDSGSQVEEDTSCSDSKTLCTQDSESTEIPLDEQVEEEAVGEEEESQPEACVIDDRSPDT

[10] = molecular target: Sodium-dependent dopamine transporter (Homo sapiens, UniProt Q01959)
Sequence of Sodium-dependent dopamine transporter (Q01959 whole entry): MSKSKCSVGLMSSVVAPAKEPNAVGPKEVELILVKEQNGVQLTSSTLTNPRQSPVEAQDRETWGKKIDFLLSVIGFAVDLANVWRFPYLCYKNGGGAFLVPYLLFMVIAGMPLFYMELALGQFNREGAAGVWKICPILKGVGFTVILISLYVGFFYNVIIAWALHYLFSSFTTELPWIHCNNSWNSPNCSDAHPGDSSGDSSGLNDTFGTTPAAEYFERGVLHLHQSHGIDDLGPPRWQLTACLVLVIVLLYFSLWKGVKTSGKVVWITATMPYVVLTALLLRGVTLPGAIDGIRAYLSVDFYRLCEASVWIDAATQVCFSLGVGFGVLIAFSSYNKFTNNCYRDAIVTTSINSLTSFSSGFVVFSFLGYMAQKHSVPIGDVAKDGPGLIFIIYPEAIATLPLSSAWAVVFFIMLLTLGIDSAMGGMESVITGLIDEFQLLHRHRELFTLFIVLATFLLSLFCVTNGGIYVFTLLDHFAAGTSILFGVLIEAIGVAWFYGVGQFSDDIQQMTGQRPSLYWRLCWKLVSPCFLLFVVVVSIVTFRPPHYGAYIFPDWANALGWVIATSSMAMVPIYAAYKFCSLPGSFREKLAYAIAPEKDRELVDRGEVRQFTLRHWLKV

[11] = molecular target: T3, 5-hydroxytryptamine receptor 3A (Homo sapiens, UniProt P46098); type: functional
T3 sequence (P46098 whole entry): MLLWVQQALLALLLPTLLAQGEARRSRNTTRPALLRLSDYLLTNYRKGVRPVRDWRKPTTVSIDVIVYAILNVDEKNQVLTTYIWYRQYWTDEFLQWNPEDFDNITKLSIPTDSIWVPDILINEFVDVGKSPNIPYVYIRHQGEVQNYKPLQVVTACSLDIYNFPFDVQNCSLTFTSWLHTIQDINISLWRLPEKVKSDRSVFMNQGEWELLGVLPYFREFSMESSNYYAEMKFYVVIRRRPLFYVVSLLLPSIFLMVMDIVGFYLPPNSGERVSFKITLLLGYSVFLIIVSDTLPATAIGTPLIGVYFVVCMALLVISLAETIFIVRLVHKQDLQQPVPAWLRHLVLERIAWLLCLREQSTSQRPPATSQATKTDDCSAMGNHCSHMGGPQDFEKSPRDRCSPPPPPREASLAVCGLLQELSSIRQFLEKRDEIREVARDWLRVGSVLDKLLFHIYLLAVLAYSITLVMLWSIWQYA

[12] = molecular target: T4, Alpha-2A adrenergic receptor (Homo sapiens, UniProt P08913); type: functional, cell-based
T4 sequence (P08913 whole entry): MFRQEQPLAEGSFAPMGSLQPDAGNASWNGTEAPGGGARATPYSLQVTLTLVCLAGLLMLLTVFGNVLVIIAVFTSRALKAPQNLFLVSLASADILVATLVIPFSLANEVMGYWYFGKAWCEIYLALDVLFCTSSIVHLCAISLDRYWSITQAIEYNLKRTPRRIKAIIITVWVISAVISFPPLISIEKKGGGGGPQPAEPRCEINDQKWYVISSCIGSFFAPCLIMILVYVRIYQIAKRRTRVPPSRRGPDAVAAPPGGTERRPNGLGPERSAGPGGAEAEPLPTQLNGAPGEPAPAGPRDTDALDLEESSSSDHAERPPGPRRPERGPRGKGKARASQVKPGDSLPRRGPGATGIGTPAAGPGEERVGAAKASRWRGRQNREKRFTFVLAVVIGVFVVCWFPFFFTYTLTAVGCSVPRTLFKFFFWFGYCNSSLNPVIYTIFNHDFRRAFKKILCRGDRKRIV

[13] = molecular target: 5-hydroxytryptamine receptor 2B (Homo sapiens, UniProt P41595); type: functional, cell-based
Sequence of 5-hydroxytryptamine receptor 2B (P41595 whole entry): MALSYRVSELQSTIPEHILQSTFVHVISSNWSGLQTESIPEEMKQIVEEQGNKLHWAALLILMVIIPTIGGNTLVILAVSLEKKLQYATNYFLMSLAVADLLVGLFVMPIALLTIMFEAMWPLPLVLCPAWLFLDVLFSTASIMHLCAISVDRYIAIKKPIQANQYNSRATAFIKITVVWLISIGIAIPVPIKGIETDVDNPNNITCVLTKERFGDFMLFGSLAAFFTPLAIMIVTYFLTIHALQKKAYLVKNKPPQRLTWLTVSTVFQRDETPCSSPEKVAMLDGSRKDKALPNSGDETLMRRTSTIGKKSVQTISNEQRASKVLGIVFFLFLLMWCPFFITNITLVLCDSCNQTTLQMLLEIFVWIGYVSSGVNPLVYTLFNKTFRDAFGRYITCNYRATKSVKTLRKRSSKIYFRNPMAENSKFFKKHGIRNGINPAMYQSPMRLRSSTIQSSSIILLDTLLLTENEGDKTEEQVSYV

[14] = molecular target: T4, Alpha-2A adrenergic receptor; type: functional, cell-based; remark: listed apart in the source
D(1A) dopamine receptor = D(1A) dopamine receptor (Homo sapiens, UniProt P21728); type: functional, cell-based
Note: assay procedure not described here.

Sequence of Bile salt export pump (O95342 whole entry): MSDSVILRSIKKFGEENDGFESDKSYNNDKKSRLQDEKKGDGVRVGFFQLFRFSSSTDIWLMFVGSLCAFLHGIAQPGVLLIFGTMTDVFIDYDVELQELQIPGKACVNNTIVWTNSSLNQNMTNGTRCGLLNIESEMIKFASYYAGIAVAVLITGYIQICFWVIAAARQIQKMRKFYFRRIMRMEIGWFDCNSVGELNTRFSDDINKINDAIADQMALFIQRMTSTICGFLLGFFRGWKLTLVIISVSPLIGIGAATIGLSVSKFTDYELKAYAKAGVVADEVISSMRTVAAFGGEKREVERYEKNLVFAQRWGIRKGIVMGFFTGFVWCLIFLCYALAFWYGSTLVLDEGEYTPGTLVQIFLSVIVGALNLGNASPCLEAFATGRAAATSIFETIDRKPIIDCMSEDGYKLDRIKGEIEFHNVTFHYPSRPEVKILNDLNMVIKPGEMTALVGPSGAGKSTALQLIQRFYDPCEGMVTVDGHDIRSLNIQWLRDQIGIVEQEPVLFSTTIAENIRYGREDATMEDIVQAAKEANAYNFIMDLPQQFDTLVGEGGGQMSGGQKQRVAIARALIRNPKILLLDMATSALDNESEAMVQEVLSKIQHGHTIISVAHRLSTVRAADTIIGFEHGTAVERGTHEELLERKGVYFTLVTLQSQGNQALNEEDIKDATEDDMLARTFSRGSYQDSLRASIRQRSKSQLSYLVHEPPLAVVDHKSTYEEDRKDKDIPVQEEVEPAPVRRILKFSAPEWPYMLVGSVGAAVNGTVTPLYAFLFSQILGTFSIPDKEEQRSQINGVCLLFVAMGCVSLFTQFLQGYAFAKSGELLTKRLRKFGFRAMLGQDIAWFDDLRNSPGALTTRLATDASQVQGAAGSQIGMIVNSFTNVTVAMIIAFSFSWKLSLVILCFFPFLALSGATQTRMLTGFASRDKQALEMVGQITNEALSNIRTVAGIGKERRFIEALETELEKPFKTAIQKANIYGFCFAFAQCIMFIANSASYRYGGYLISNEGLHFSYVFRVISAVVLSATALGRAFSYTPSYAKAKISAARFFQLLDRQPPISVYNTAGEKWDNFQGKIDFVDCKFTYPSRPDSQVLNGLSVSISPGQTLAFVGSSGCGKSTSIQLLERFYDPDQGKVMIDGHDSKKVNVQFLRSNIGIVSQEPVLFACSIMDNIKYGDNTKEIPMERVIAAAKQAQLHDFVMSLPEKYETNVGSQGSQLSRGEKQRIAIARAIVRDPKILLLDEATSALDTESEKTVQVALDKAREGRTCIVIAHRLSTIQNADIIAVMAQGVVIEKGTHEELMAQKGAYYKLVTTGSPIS

O=C1c2c(O)c(=O)ccn2N([C@@H]2c3ccccc3SCc3c2ccc(F)c3F)[C@@H]2COCCN12 [BALOXAVIR]
AC50 (Bile salt export pump): 24 µM | AC50 [1]: > 30 µM

COc1cc(Nc2c(C#N)cnc3cc(OCCCN4CCN(C)CC4)c(OC)cc23)c(Cl)cc1Cl [BOSUTINIB]
AC50 [2]: > 10 µM | AC50 (Adenosine receptor A2a): > 30 µM | AC50 [3]: 32.5 µM | AC50 [4]: > 10 µM | AC50 [5]: 4.3 µM | AC50 [6]: > 10 µM | AC50 (Melanocortin receptor 3): 18.1 µM | AC50 [7]: > 30 µM | AC50 [8]: > 10 µM | AC50 [9]: > 30 µM | AC50 [10]: 8.75 µM | AC50 [11]: > 10 µM

CCO/N=C(\C(=O)N[C@@H]1C(=O)N2C(C(=O)[O-])=C(Sc3nc(-c4cc[n+](C)cc4)cs3)CS[C@H]12)c1nsc(N)n1 [CEFTAROLINE]
AC50 [1]: 26 µM

Cc1cc(O)cc(C)c1Cl [CHLOROXYLENOL]
AC50 (Bile salt export pump): > 300 µM | AC50 [1]: > 30 µM

CN(C)CCCN1c2ccccc2CCc2ccc(Cl)cc21 [CLOMIPRAMINE]
AC50 [2]: > 10 µM | AC50 [12]: > 10 µM | AC50 [4]: > 10 µM | AC50 [13]: 5.6 µM | AC50 [6]: > 30 µM | AC50 [10]: 14.6 µM | AC50 [14]: > 10 µM | AC50 [11]: > 30 µM

C[N+](C)(C)CCCCCCCCCC[N+](C)(C)C [DECAMETHONIUM]
AC50 [1]: > 30 µM

O=C1c2ccccc2C(=O)C1C(=O)C(c1ccccc1)c1ccccc1 [DIPHENADIONE]
AC50 [1]: > 30 µM

CCC(=O)O[C@H]1[C@H](O[C@@H]2[C@@H](C)[C@H](O[C@H]3C[C@@](C)(OC)[C@@H](O)[C@H](C)O3)[C@@H](C)C(=O)O[C@H](CC)[C@@](C)(O)[C@H](O)[C@@H](C)C(=O)[C@H](C)C[C@@]2(C)O)O[C@H](C)C[C@@H]1N(C)C [ERYTHROMYCIN PROPIONATE]
AC50 (Bile salt export pump): > 300 µM

CCOC(=O)c1ccc(O)cc1 [ETHYLPARABEN]
AC50 (Bile salt export pump): > 300 µM | AC50 [1]: > 30 µM

O=C1[C@H](CC[C@H](O)c2ccc(F)cc2)[C@@H](c2ccc(O)cc2)N1c1ccc(F)cc1 [EZETIMIBE]
AC50 [1]: 16 µM

O=C(COc1ccc(Cl)cc1)N1CCN(Cc2ccc3c(c2)OCO3)CC1 [FIPEXIDE]
AC50 (Bile salt export pump): 48 µM | AC50 [1]: 12 µM

Cc1c(-c2ccccc2)oc2c(C(=O)OCCN3CCCCC3)cccc2c1=O [FLAVOXATE]
AC50 (Bile salt export pump): 220 µM | AC50 [1]: 3.8 µM

CCC(=O)c1c(O)cc(O)cc1O [FLOPROPIONE]
AC50 [1]: > 30 µM

CC1(C)O[C@@H]2C[C@H]3[C@@H]4C[C@H](F)C5=CC(=O)CC[C@]5(C)[C@H]4[C@@H](O)C[C@]3(C)[C@]2(C(=O)CO)O1 [FLURANDRENOLIDE]
AC50 [1]: > 30 µM

CC(C)C(=O)Nc1ccc([N+](=O)[O-])c(C(F)(F)F)c1 [FLUTAMIDE]
AC50 [2]: > 10 µM | AC50 (Adenosine receptor A2a): > 30 µM | AC50 [3]: > 10 µM | AC50 (D(1A) dopamine receptor): > 30 µM | AC50 [12]: > 10 µM | AC50 [4]: > 30 µM | AC50 [5]: > 30 µM | AC50 [13]: > 10 µM | AC50 [6]: > 30 µM | AC50 (Melanocortin receptor 3): > 30 µM | AC50 [7]: > 10 µM | AC50 [8]: > 10 µM | AC50 [1]: 2.53 µM | AC50 [9]: > 30 µM | AC50 [10]: > 10 µM | AC50 [14]: > 10 µM | AC50 [11]: > 30 µM

C#C[C@]1(O)CC[C@H]2[C@@H]3CCC4=CC(=O)CC[C@@H]4[C@H]3CC[C@@]21CC [LEVONORGESTREL]
AC50 (Bile salt export pump): 94 µM | AC50 [1]: > 30 µM

OC[C@@H](O)[C@@H](O)[C@H](O)[C@H](O)CO [MANNITOL]
AC50 (Bile salt export pump): > 300 µM

CC(=O)Oc1c(C)cc(OCC(O)CNC(C)C)c(C)c1C (stereo not drawn) [METIPRANOLOL]
AC50 [1]: > 30 µM

OCCN1CCN(CCCN2c3ccccc3C=Cc3ccccc32)CC1 [OPIPRAMOL]
AC50 [2]: > 30 µM | AC50 (Adenosine receptor A2a): > 30 µM | AC50 [3]: > 30 µM | AC50 (D(1A) dopamine receptor): > 30 µM | AC50 [12]: > 30 µM | AC50 [4]: > 30 µM | AC50 [5]: > 30 µM | AC50 [13]: > 30 µM | AC50 [6]: > 30 µM | AC50 (Melanocortin receptor 3): > 30 µM | AC50 [7]: > 30 µM | AC50 [8]: > 30 µM | AC50 [1]: 14 µM | AC50 [9]: > 30 µM | AC50 [10]: > 30 µM | AC50 [14]: > 30 µM | AC50 [11]: > 30 µM

CN(C)C(=O)Oc1ccc[n+](C)c1 [PYRIDOSTIGMINE]
AC50 (Bile salt export pump): > 300 µM

Cc1cc2c(cc1CC(=O)c1sccc1S(=O)(=O)Nc1onc(C)c1Cl)OCO2 [SITAXENTAN]
AC50 (Bile salt export pump): 9.7 µM

Cc1ccc(O)c2ncccc12 [TILIQUINOL]
AC50 [1]: > 30 µM
